Key:
Assay in all cases: Greenhouse post-emergence herbicidal test
Type in all cases: in vivo
[1] = system: BRAPP (Urochloa platyphylla)
Description: (§1) The culture containers used were plastic pots containing loamy sand with approximately 2-3.0% of organic matter. The seeds of the test plants were sown separately for each species.
(§2) For the post-emergence treatment, the test plants were grown to a plant height of from 3 to 15 cm, depending on the plant habit, and only then treated with the active compounds which had been suspended or emulsified in water. To this end, the test plants were either sown directly, and grown in the same containers, or they were first grown separately as seedlings and transplanted into the test containers a few days prior to treatment.
(§3) Depending on the species, the plants were kept at 10-25° C. and 20-35° C., respectively.
(§4) The test period extended over 2 to 4 weeks. During this time, the plants were tended and their response to the individual treatments was evaluated.
(§5) Evaluation was carried out using a scale from 0 to 100. 100 means no emergence of the plants, or complete destruction of at least the above-ground parts, and 0 means no damage or normal course of growth. A good herbicidal activity is given at values of at least 70, and very good herbicidal activity is given at values of at least 85.
(§6) In the examples below, using the method of S. R. Colby (1967) “Calculating synergistic and antagonistic responses of herbicide combinations”, Weeds 15, p. 22ff., the value E, which is expected if the activity of the individual active compounds is only additive, was calculated.
(§7) where • X=percent activity using active compound A at an application rate a; • Y=percent activity using active compound B at an application rate b; • E=expected activity (in %) by A+B at application rates a+b.
(§8) If the value found experimentally is higher than the value E calculated according to Colby, a synergistic effect is present.
(§9) For preparation of the mixtures herbicides A were used in form of an aqueous solution comprising 22.5% by weight of the respective herbicide A. The herbicides B were used in form of the respective commercially available formulations as identified below. If appropriate, the adjuvant DASH® HC was added to the mixtures.
(§10) The respective mixtures of active ingredients were introduced into the spray liquor used for applying the active compound. In the examples, the solvent used was water.

[2] = system: COMBE (Commelina benghalensis)
Description: as §1, §2, §3, §4, §5, §6, §7, §8, §9, §10

SETFA (Setaria faberi) = system: SETFA (Setaria faberi)
Description: as §1, §2, §3, §4, §5, §6, §7, §8, §9, §10

[3] = system: AMBEL (Ambrosia artemisiifolia)
Description: as §1, §2, §3, §4, §5, §6, §7, §8, §9, §10

[4] = system: CHEAL (Chenopodium album)
Description: as §1, §2, §3, §4, §5, §6, §7, §8, §9, §10

[5] = system: ABUTH (Abutilon theophrasti)
Description: as §1, §2, §3, §4, §5, §6, §7, §8, §9, §10

[6] = system: ERICA (Erigeron canadensis)
Description: as §1, §2, §3, §4, §5, §6, §7, §8, §9, §10

[7] = system: POLPE (Polygonum persicaria)
Description: as §1, §2, §3, §4, §5, §6, §7, §8, §9, §10

[8] = system: AMARE (Amaranthus retroflexus)
Description: as §1, §2, §3, §4, §5, §6, §7, §8, §9, §10

[9] = system: DIGSA (Digitaria sanguinales)
Description: as §1, §2, §3, §4, §5, §6, §7, §8, §9, §10

[10] = system: PANMI (Panicum miliaceum L.)
Description: as §1, §2, §3, §4, §5, §6, §7, §8, §9, §10

[11] = Example 4, post-emergence, B.30 12.5 g/ha a.i.
[12] = Example 5, post-emergence, B.55 2.5 g/ha a.i.
[13] = Example 1, post-emergence, B.17 62.5 g/ha a.i.
[14] = Example 1, post-emergence; a1) 125 g/ha a.i.
[15] = Example 2, post-emergence; a1) 62.5 g/ha a.i.
[16] = Example 5, post-emergence; a1) 31.25 g/ha a.i.
[17] = Example 4, post-emergence; a1) 125 g/ha a.i.
[18] = Example 2, post-emergence, B.49 75 g/ha a.i.

## Cn1nc(C(F)(F)F)c(CS(=O)(=O)C2=NOC(C)(C)C2)c1OC(F)F [B.30, pyroxasulfone]
[1]; [11]
  herbicidal activity against BRAPP found: 50%
[2]; [11]
  herbicidal activity against COMBE found: 45%
SETFA (Setaria faberi); [11]
  herbicidal activity against SETFA found: 40%

## COC(=O)c1ccccc1S(=O)(=O)NC(=O)Nc1nc(C)nc(OC)n1 [B.55, metsulfuron-methyl]
[3]; [12]
  herbicidal activity against AMBEL found: 75%
[4]; [12]
  herbicidal activity against CHEAL found: 40%

## CC(C)N1C(=O)c2ccccc2NS1(=O)=O [B.17, bentazone]
[5]; [13]
  herbicidal activity against ABUTH found: 40%
[3]; [13]
  herbicidal activity against AMBEL found: 30%
[6]; [13]
  herbicidal activity against ERICA found: 70%
[7]; [13]
  herbicidal activity against POLPE found: 55%

## COCc1cnc(C2=NC(C)(C(C)C)C(=O)N2)c(C(=O)O)c1 (stereo not shown) [B.3, imazamox]
[6]; Example 3, post-emergence, heading: +1% by weight DASH HC, B.3 9 g/ha a.i.
  herbicidal activity against ERICA found: 90%

## C/C=C1/CC2=C(C(=O)OC2=O)[C@H](CCC)[C@H](O)C(=O)C[C@@H]1O [a1), cornexistin]
[5]; [14]
  herbicidal activity against ABUTH found: 50%
[8]; [15]
  herbicidal activity against AMARE found: 50%
[3]; [14]
  herbicidal activity against AMBEL found: 65%
[3]; [16]
  herbicidal activity against AMBEL found: 80%
[1]; [17]
  herbicidal activity against BRAPP found: 50%
[4]; [15]
  herbicidal activity against CHEAL found: 90%
[4]; [16]
  herbicidal activity against CHEAL found: 70%
[2]; [17]
  herbicidal activity against COMBE found: 55%
[9]; [15]
  herbicidal activity against DIGSA found: 55%
[6]; [14]
  herbicidal activity against ERICA found: 40%
[6]; Example 3, post-emergence, heading: +1% by weight DASH HC; a1) 62.5 g/ha a.i.
  herbicidal activity against ERICA found: 60%
[10]; [15]
  herbicidal activity against PANMI found: 80%
[7]; [14]
  herbicidal activity against POLPE found: 60%
SETFA (Setaria faberi); [17]
  herbicidal activity against SETFA found: 80%

## CCc1cccc(CC)c1N(COC)C(=O)CCl [B.49, alachlor]
[8]; [18]
  herbicidal activity against AMARE found: 30%
[4]; [18]
  herbicidal activity against CHEAL found: 0%
[9]; [18]
  herbicidal activity against DIGSA found: 40%
[10]; [18]
  herbicidal activity against PANMI found: 45%

— patent US20150335016A1, “Herbicidal Composition Comprising a Cornexistin” (BASF SE, priority 2012, published 2015)
